Source: PubChem BioAssay (NCI)
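48-hour exposure; five concentrations; linearly interpolated endpoints. GI50 is the concentration that inhibits growth by half. At the TGI there is no net growth.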

Columns and labels:
Experiment in all cases: inhibition of tumour cell growth, NCI panel, 48 h
[1] = system: BT-549 breast
[2] = system: MCF7 breast
[3] = system: NCI-H522 lung
[4] = system: HCT-15 colon
[5] = system: SN12C renal
[6] = system: CAKI-1 renal
[7] = system: OVCAR-5 ovarian
[8] = system: SW-620 colon
[9] = system: MDA-MB-231 breast
[10] = system: SK-OV-3 ovarian
[11] = system: U251 CNS
[12] = system: SNB-75 CNS
[13] = system: SR leukemia
[14] = system: MDA-MB-435

SMILES	TGI [1] [µM]	TGI [2] [µM]	TGI [3] [µM]	TGI [4] [µM]	TGI [5] [µM]	TGI [6] [µM]	TGI [7] [µM]	TGI [8] [µM]	TGI [9] [µM]	TGI [10] [µM]	TGI [11] [µM]	TGI [12] [µM]	TGI [13] [µM]	TGI [14] [µM]	GI50 [5] [µM]	GI50 [14] [µM]
COC(=O)C1([C@@H]2C[C@@H](O)[C@]3(C)CC/C=C(\C)CCC[C@H](C)[C@H](O)[C@@H]2O3)CC1	> 100	> 100	> 100	> 100	> 100	> 100	> 100	> 100	> 100	> 100	> 100	17.8	95.3	> 100		
O=c1c2cccnc2[nH]c2ccc3scnc3c12	> 10	> 10	> 10	> 10	> 10	> 10	> 10	> 10	> 10	> 10	> 10	> 10	> 10	> 10		
C=CCNC1=C2C[C@@H](C)C[C@@H](OC)[C@H](OC(=O)CN(C)C)[C@H](C)/C=C(\C)[C@@H](OC(N)=O)[C@H](OC)/C=C\C=C(/C)C(=O)NC(=CC1=O)C2=O	24	14.3	18.3	20.4	17.7	31.9	25.7	26.9	10.5	20	19.7	0.909	> 32	13.7		
O=C(NO)c1cccc(OCc2ccc(Br)cc2)c1	> 100	> 65	16.2	> 100	12.8	15	> 70.7	> 100	86.3	> 55.7	> 53.8	> 54.1	37.3	38.7		
COC(=O)[C@H](CCSC)NC(=O)c1ccc(CNC(=O)/C=C/c2cccc(Oc3ccccc3)c2)cc1	> 100	> 100	> 100	> 100	> 100	> 80.3	> 100	> 100	> 83.5	> 100	> 100	> 100	> 100	32.9		
c1ccc(COCC23CCN(Cc4ccccc4)C(CC(OCc4ccccc4)C2)S3)cc1 (centres undefined)	> 100	59.9	72.7	> 100	> 100	> 100	> 100	> 100	> 100	> 100	> 100	> 100	63.7	> 100		
CC(=O)O[C@H]1CC[C@H]2[C@@H]3CCc4cc(O)c(I)cc4[C@H]3CC[C@]12C	29.4	33.8	25.2	22.9	37.2	29.7	32.2	27.7	12.3	29.1	27.8	26.2	> 100	26.6	18	13.1
O=C(O)CN1CCNCCN(CC(=O)O)CC1	> 100	> 100	30.7	> 100	> 100	> 100	> 100	> 100	> 100	98.4	> 100	> 100	> 29.4	> 100		
CCOC(=O)CSc1nc(-c2ccc(OC)cc2)c(C#N)c(=O)[nH]1	> 100	> 100	> 100	> 100	> 100	> 100	> 100	> 100	> 100	> 100	> 100	> 100	> 100	> 100		
CNC(=O)Nc1cc2c3c(c1)CCCN3CCC2	> 10	> 10	> 10	> 10	> 10	> 10	> 10	> 10	> 10	> 10	> 10	> 10	> 10	> 10		
CC(C)(C)CN1[C@@H]2CCCC[C@H]2N(CC(C)(C)C)P1(=O)Cc1ccccc1	31.2	26.2	20.6	25	30.1	27.3	25.4	30.7	24.9	29.2	26.5	24.1	29.7	32.7		
C1COC2SC3=C(SC(=C4SC5=C(SCCS5)S4)S3)SC2O1 (centres undefined)	> 100	> 100	> 100	> 100	> 100	> 100	> 100	> 100	> 100	> 100	> 100	> 100	78.3	> 100		
CC12CN(CC[N+](C)(C)C)CC1(C)C1CCC2O1 (centres undefined)	> 100	> 100	> 100	> 100	> 100	> 100	> 100	> 100	> 100	> 100	> 100	> 100	> 100	> 100		
